These results are taken from patent US10111420B2 (priority 2011, dated 2018).

SMILES strings stand for the structures.

This data set in a line: Sessile advancing contact angle of distilled water containing surfactants. It counts as physicochemical. The settings on record: water on oven dry P. radiata. Here is the method:
The contact angle data is recorded using water because resins, by their nature, can continue to polymerise resulting in changes in viscosity which will change the wetting behaviour of the resin/surfactant mix. […] Water is also present in all amino resins as the carrier of the resin solids so it is important to understand the effect of the surfactant on water because this will have a direct relationship on the wetting performance of the resin. The contact angle shown below is the average of at least 5 measurements. The measurements were taken after 1 second and in some instances after half a second. Where the entry is “n/a” it indicates complete wetting i.e. a contact angle of 0° or very close to 0°.

Take `CCCCCCCCCCCCOS(=O)(=O)[O-].[Na+]` [SDS]: the “Contact angle @ 1 sec” value is on record as 31.0 ° (surfactant 0.05%, octanol 0.1%); 9.5 ° (surfactant 0.1%, octanol 0.1%); 8.99 ° (surfactant 0.1%, octanol 0.25%).
